Reference: patent US12410155B2, “Salt form and crystal form of tetrahydrocyclohepta indazole compound” (Zhejiang Yangli Pharmaceutical Technology Co., Ltd., priority 2021, dated 2025)
Read-outs that look alike come from different tables or passages of the source.

Experiments:
[1] = molecular target: T1, ERα (Homo sapiens, UniProt P03372); experiment: HEK293/GAL4/ERα antagonist assay (luciferase reporter); format: cell-based; conditions: 1 nM estradiol, read-out: IC50 (nM), antagonistic effect
T1 sequence (P03372 311-547 limits assumed): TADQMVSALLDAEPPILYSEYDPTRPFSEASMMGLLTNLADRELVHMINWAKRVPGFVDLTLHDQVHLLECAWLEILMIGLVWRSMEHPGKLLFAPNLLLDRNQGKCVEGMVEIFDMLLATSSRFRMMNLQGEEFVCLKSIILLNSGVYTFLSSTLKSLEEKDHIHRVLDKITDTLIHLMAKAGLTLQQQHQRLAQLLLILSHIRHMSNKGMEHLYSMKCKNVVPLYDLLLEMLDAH
Protocol: (2) HEK293/GAL4/ERα Antagonist Assay
DMEM (without phenol red) containing 10% charcoal-stripped serum (i.e., 450 mL DMEM and 50 mL charcoal-stripped serum in 500 mL medium)
The antagonistic effect of the compound of formula (I) on ERα, was analyzed using triplicate wells with compound concentration ranging from 200 nM to 0.00256 nM.
• 1) The HEK293/GAL4/ERα cell suspension was collected and centrifuged at 1000 rpm for 5 minutes. The supernatant was discarded, and the cells were resuspended in pre-warmed experimental medium. After counting, the cell suspension was diluted with experimental medium. 40000 cells per well were seeded into a 96-well cell culture plate, with 80 μL of cell suspension per well. […] Subsequently, 10 μL of assay medium containing 10 nM estradiol was added to each well. For blank controls, 10 μL of assay medium was added. A final estradiol concentration of 1 nM was ensured. […] The plate was incubated at 25° C. for 2 minutes. After incubation, the luminescence signal was then detected using an EnVision plate reader. Data Analysis:
GraphPad Prism software was used to plot the data and calculate the IC50 values for the compound.

[2] = tested on: MCF-7 cells; experiment: MCF-7 cell proliferation inhibition assay (CTG); format: cell-based; conditions: Homo sapiens
Protocol: (4) MCF-7, T-47D, and CAMA-1 Cell Proliferation Inhibition Assay
The inhibitory effect of the test compound of formula (I) on the proliferation of MCF-7, CAMA-1, and T-47D cells was analyzed. For MCF-7 cells, ten concentration gradients ranging from 100 nM to 0.0003815 nM were tested, with three replicates for each concentration. For CAMA-1 cells, nine concentration gradients ranging from 100 nM to 0.001526 nM were tested, also with three replicates for each concentration. For T-47D cells, nine concentration gradients ranging from 2 μM to 0.00512 nM were tested, with three replicates for each concentration. Each experiment was conducted twice independently.
MCF-7 cells that reached 80% cell fusion were digested using trypsin, centrifuged, resuspended, and counted. Cell suspensions were prepared using the corresponding culture medium, and 45 μL of the suspension was added to each well of a 384-well plate. The plate was then incubated at 37° C. in a cell incubator with 5% CO2. The test compound of formula (I) was dissolved in DMSO to an initial concentration of 20 μM and subjected to a 4-fold serial dilution to achieve ten different concentrations. After overnight incubation, the diluted compound was further diluted with the corresponding cell culture medium. The resulting mixture was transferred to the respective wells of the cell plate, starting with a final concentration of 100 nM, followed by a 4-fold serial dilution to achieve ten concentrations. The positive control wells contained 2 μM fulvestrant. The plate was mixed, centrifuged, and incubated at 37° C. in a cell incubator with 5% CO2 for the specified number of days according to the above table.
After incubation for the specified time, the cell culture plate was removed, and the CTG reagent was added. The plate was thoroughly mixed, centrifuged, and incubated at room temperature for 10 minutes. The readings were taken using the Envision multi-label analyzer. Data analysis:
Positive control: cells treated with 2 μM fulvestrant; negative control: cells treated with 0.5% DMSO. […]

In the case of FCCCN1CC[C@H](Nc2cnc(C3=C(CC(F)(F)F)CCCc4c3ccc3[nH]nc(F)c43)cn2)C1 [Compound of formula (I)], the IC50 ([1]; Mean ± SD) is reported as 0.0857 ± 0.0103 nM, the IC50 ([1]; N = 1) is reported as 0.096 nM and the IC50 ([1]; N = 2) is reported as 0.075 nM. It also gave an IC50 ([2]; MCF7, First experiment) of 0.19 nM, an IC50 ([2]; MCF7, Mean ± SD) of 0.18 ± 0.013 nM and an IC50 ([2]; MCF7, Second experiment) of 0.16 nM.
